Results: article PMC10374545, “A small molecule inhibitor of PTP1B and PTPN2 enhances T cell anti-tumor immunity” (Nature Communications, 2023)
“And” between values parts separate entries of the source, which are not always exact repeats. Equal values may be shown once.

Columns and labels:
[1] = system: NK cells; assay: NK cell proliferation (CFSE dilution); format: cell-based, mouse; settings: IL-15, 96 h; 0.1 or 1 (µM in figure, µg/ml in legend)
Protocol: proliferation in vitro. a-b) NK cells from C57BL/6 male mice (n=3 per group) were expanded […]
µg/ml) or vehicle (1% v/v DMSO) in the absence of IL-15. a) NK cells were re-stimulated for 15 min with the indicated amounts of IL-15 and Y694 phosphorylated STAT-5 (p-STAT-5) mean fluorescence intensities (MFIs) determined by flow cytometry. b) Alternatively, NK cells were stained with carboxyfluorescein succinimidyl ester (CFSE, Invitrogen) and then re-stimulated with the indicated amounts of IL-15 for 96 h and NK cell proliferation (CFSE dilution) monitored by flow cytometry. c-d) NK cells from C57BL/6 male mice (n=3 per group) were expanded ex vivo in the presence of IL-15 and then pre-treated with CMP-182 (0.1 or 1 µg/ml) or vehicle in the absence of IL-15. NK cells were re-stimulated with either IL-12 (10 ng/ml) or IL-18 (100 ng/ml) or with α-NK1.1 or α-Ly49H for 4 h. NK cells were maintained in 10 ng/ml IL-15 throughout the 4 h incubation time. Percentages of c) IFN-γ+ and d) CD107A+ NK cells were determined by flow cytometry. In (a-d) results shown are means ± SEM and are representative of at least two independent experiments.

[2] = system: AT3 mammary tumors; assay: Tumor-infiltrating lymphocytes in AT3 tumors; format: in vivo, mouse; set-up: CD4 EM, individual mice / CD8 EM, individual mice / GRZMB, individual mice / B cells, individual mice / NK cells, individual mice / Tregs, individual mice / MDSCs, individual mice: unit not given here
Protocol: Tumor-bearing mice were sacrificed and tumors were excised and digested at 37 °C for 30 min using a cocktail of 1 mg/ml collagenase type IV (Worthington Biochemicals) and 0.02 mg/ml DNase I (Sigma-Aldrich) in DMEM supplemented with 2% (v/v) FBS. Cells were passed through a 70 μm cell strainer (BD Biosciences) twice and processed for flow cytometry. For assessing T cell activation, cells were surface stained with fluorophore-conjugated antibodies to CD62L, CD44, PD-1, and TIM-3. For the assessment of NK cells, B cells, myeloid-derived suppressor cells (MDSCs), dendritic cells (DCs), and tumor-associated macrophages, cells were surface stained with fluorophore-conjugated antibodies to NK1.1, TCRβ, CD19, CD11b, CD11c, F4/80, Ly6C and Ly6G. For the detection of intracellular cytokines TNF and IFNγ, T cells were stimulated with PMA (20 ng/ml; Sigma-Aldrich) and ionomycin (1 μg/ml; Sigma-Aldrich) in the presence of GolgiPlug™ and GolgiStop™ (BD Biosciences) for 4 h at 37 °C in complete T cell medium. For the intracellular detection of granzyme B, cells were processed untreated without the addition of BD GolgiPlug™ and BD GolgiStop™.

[3] = Serum liver enzymes AST and ALT; format: in vivo, mouse; set-up: Serum ALT: unit not given here
Description: CD3ε (BD Biosciences Cat# 553058) and CD28 (BD Biosciences Cat# 557393) antibodies for T cell stimulation and NK1.1 (BD Biosciences Cat# 564143) antibody for NK cell stimulation were purchased from BD Biosciences. Ly49H (clone 3D10, BioLegend Cat# 144702) antibody for NK stimulation was from BioLegend. For analyzing T cell signaling, p-(Y418) SFK (Thermo Fisher Scientific Cat# 14-9034-82) was from Invitrogen and p-(Y694) STAT-5 (D47E7) XP® (Cell Signaling Technology Cat# 4322) was from Cell Signaling. Recombinant human IL-2, recombinant murine IL-7 and recombinant human IL-15 were purchased from the PeproTech, recombinant mouse IL-12 and recombinant human IL-18 were from Australia Biosearch and […] (N4) from Mimotopes. InVivoMAb anti-mouse PD-1 (Bio X Cell Cat# BE0146) and InVivoMAb rat IgG2a isotype control (Bio X Cell Cat# BE0251) were purchased from Bio X Cell. DNase I was from Sigma-Aldrich. Rabbit monoclonal PTP1B (Abcam Cat# ab244207) antibody for flow cytometry was from Abcam and mouse monoclonal PTPN2 6F3 antibody for immunoblotting and flow cytometry was from MédiMabs (Cat# MM-019-P). Mouse anti-actin (Thermo Fisher Scientific Cat# MA5-11866) from Invitrogen and mouse α-tubulin (Sigma-Aldrich Cat# T5168) was from Merck. The mouse anti-nuclear antibodies Ig’s (total IgA+G + M) ELISA Kit was from Alpha Diagnostic Int. and the Transaminase II Kit from Wako Pure Chemicals. FBS was purchased from Thermo Scientific, RPMI 1640, DMEM, MEM, HEPES, non-essential amino acids, penicillin/streptomycin, and sodium-pyruvate were from Invitrogen, collagenase type IV was purchased from Worthington Biochemical and ABBV-CLS-484 was from MedChemExpress (Cat# HY-145923).

[4] = system: AT3-OVA mammary tumors; assay: AT3-OVA tumor growth in Rag1-/- mice; format: in vivo, mouse; set-up: key to Tumour growth: tumour size in mm^2 (two-dimensional caliper measurement); Tumour weights: unit not given here; settings: for Tumour size RAG1, mean: in mm2
Protocol: Male or female mice were injected subcutaneously with 5 × 10^5 MC38 tumor cells resuspended in 100 μl D-PBS into the flank. Alternatively, female mice were injected orthotopically with 5 × 10^5 AT3 or AT3-OVA or PTPN2-deleted AT3 or AT3-OVA tumor cells resuspended in 20 μl D-PBS into the fourth mammary fat pad. Tumor sizes were measured in two dimensions (mm^2) using electronic callipers two to three times per week as soon as tumors were palpable (20–25 mm^2).

[5] = AT-3 tumours, Figure 4E, listed as CMP-182
[6] = AT-3 tumours, Figure 4F, listed as CMP-182

## CC(C)(O)CCOc1ccc2cc(O)c(N3CC(=O)NS3(=O)=O)c(F)c2c1 [Compound 182, 5-(1-Fluoro-3-hydroxy-7-(3-hydroxy-3-methylbutoxy)naphthalen-2-yl)−1,2,5-thiadiazolidin-3-one 1,1-dioxide]
[1]
  NK cell proliferation: did not enhance
[2]; 10 mg/kg i.v.
  TILs in AT3 tumors: increased TILs
[2]; [5]
  CD4 EM, individual mice: 3726.1 and 1503.32 and 2365.26 and 3607.46 and 1559.09
  CD8 EM, individual mice: 36747.8 and 11580.8 and 23763.5 and 22145.6 and 15367.2
  GRZMB, individual mice: 38 and 29.8 and 32 and 36.3 and 27.7
  PD-1 TIM-3, individual mice: 17.7 and 30.7 and 29.6 and 26.7 and 38
[2]; [6]
  B cells, individual mice: 10773 and 2554.29 and 3750.15 and 13582.9 and 3202.26
  MDSCs, individual mice: 17269.7 and 11457.4 and 14297.5 and 10691.6 and 5468.87
  NK cells, individual mice: 10197.4 and 4505.05 and 4177.56 and 6667.39 and 3703.02
  Tregs, individual mice: 857.48 and 533.579 and 888.636 and 1675.89 and 531.261
[3]; 10 mg/kg i.v.
  circulating aspartate aminotransferase (AST): moderately increased
  serum alanine aminotransferase (ALT): unaffected
[3]; Figure 10C, individual mice, listed as CMP-182
  Serum ALT: 680.498 and 1112.03 and 497.925 and 464.73 and 414.938 and 597.51 and 697.095 and 730.29
[3]; Figure 10C, individual mice, listed as CMP-182, in U/L (unit assumed)
  Serum AST: 1826.92 and 3480.77 and 2019.23 and 1211.54 and 1250 and 1519.23 and 2346.15 and 4019.23
[3]; Figure 10C, serum ALT, median, n=8
  GPT, median: 639.0, n=8
[3]; Figure 10C, serum AST, median, n=8
  GOT, median: 1923, n=8
[4]; 10 mg/kg i.v., mice lack T and B cells
  AT3-OVA mammary tumor growth in Rag1-/- mice: no effect
[4]; Figure 6E, RAG1 mice, n=6, individual animals, day 9 post injection, listed as CMP-182
  Tumour growth: 7.7488 and 14.8962 and 11.224 and 3.9597 and 9.447 and 12.6224
[4]; Figure 6E, RAG1 mice, n=6, individual animals, day 11 post injection, listed as CMP-182
  Tumour growth: 19.6245 and 35.0523 and 26.8632 and 16.6934 and 15.0024 and 31.8592
[4]; Figure 6E, RAG1 mice, n=6, individual animals, day 14 post injection, listed as CMP-182
  Tumour growth: 31.9081 and 32.6823 and 36.7674 and 25.1923 and 36.3137 and 48.8592
[4]; Figure 6E, RAG1 mice, n=6, individual animals, day 16 post injection, listed as CMP-182
  Tumour growth: 59.5752 and 89.2808 and 73.4616 and 57.4821 and 68.9011 and 83.2686
[4]; Figure 6E, RAG1 mice, n=6, individual animals, day 18 post injection, listed as CMP-182
  Tumour growth: 74.7088 and 110.046 and 88.7004 and 79.0656 and 57.8454 and 92.4255
[4]; Figure 6E, RAG1 mice, n=6, individual animals, day 21 post injection, listed as CMP-182
  Tumour growth: 75.82 and 124.872 and 109.74 and 89.0525 and 89.04 and 103.68
[4]; Figure 6E, RAG1 mice, n=6, individual animals, day 23 post injection, listed as CMP-182
  Tumour growth: 84.728 and 134.64 (3×) and 89.0525 and 133.35
[4]; Figure 6E, RAG1 mice, n=6, individual animals, day 25 post injection, listed as CMP-182
  Tumour growth: 88 and 156.6 and 126.72 and 89.0525 and 186.66 and 168.74
[4]; Figure 6E, RAG1 mice, n=6, individual animals, listed as CMP-182
  Tumour weights: 270 and 560 and 890 and 220 and 490 and 330
[4]; RAG1 mice, column B (Data Set-B), n=6, Figure 6E
  TUMOR WEIGHTS RAG1, median: 410.0, n=6
[4]; RAG1 mice, n=6, Figure 6E, mean of 8 time points
  Tumour size RAG1, mean over all time points (column mean): 72.3 mm2
[4]; RAG1 mice, n=6, time point 9, Figure 6E
  Tumour size RAG1, mean: 9.983
[4]; RAG1 mice, n=6, time point 11, Figure 6E
  Tumour size RAG1, mean: 24.18
[4]; RAG1 mice, n=6, time point 14, Figure 6E
  Tumour size RAG1, mean: 35.29
[4]; RAG1 mice, n=6, time point 16, Figure 6E
  Tumour size RAG1, mean: 71.99
[4]; RAG1 mice, n=6, time point 18, Figure 6E
  Tumour size RAG1, mean: 83.8
[4]; RAG1 mice, n=6, time point 21, Figure 6E
  Tumour size RAG1, mean: 98.7
[4]; RAG1 mice, n=6, time point 23, Figure 6E
  Tumour size RAG1, mean: 118.5
[4]; RAG1 mice, n=6, time point 25, Figure 6E
  Tumour size RAG1, mean: 136
